Results as given in US20100035984A1, “Use of an antibacterial compound which is derived from alliaceae, as a natural additive in animal feed” (DMC Research Center, S.L., priority 2006, published 2010).
“And” between values parts separate entries of the source, which are not always exact repeats. Equal entries are not always repeated. Marks after values point to notes of the source that are not given here.

Tests used:
Assay type in all cases: cell-based
[1] = system: total anaerobes, total aerobes, enterobacteria, coliform bacteria, bacteroides, clostridia, lactobacilli and bifidobacteria; experiment: In vitro fermentation of pig feces inoculum, counts of all bacterial groups (Example 1); conditions: 50 to 2000 mg/L in culture medium, 24 hours in vitro fermentation, inocula from piglet feces
Method: FIG. 1 is a graph relating to Example 1 (study of the porcine digestive microbial composition) showing the effect of different concentrations of the compound PTSO after 24 hours of in vitro fermentation on the total anaerobic bacteria, total aerobic bacteria, enterobacteria, coliform bacteria, bacteroides, clostridia, lactobacilli and bifidobacteria count present in pig feces. The vertical axis of the graph determines the log 10(cfu/g feces) and the horizontal axis determines the bacterial group.
The described assays are carried out using complete bacterial inocula obtained from feces of piglets in post-weaning stage.

lactobacilli = experiment: In vitro fermentation of pig feces, lactobacilli count (Example 2); conditions: 200 mg/L, 24 hours
Method: (§1) The mean values affected by different indexes indicate significant differences (p<0.05). The vertical axis of the graph determines the log 10(cfu/g feces) and the horizontal axis determines the compound. The described assays are carried out using complete bacterial inocula obtained from feces of piglets in post-weaning stage. Two of the compounds (referenced as PTS and as PTSO) are assayed in a lower dose range (50-400 mg/L).

bifidobacteria = experiment: In vitro fermentation of pig feces, bifidobacteria count (Example 2); conditions: 200 mg/L, 24 hours
Method: as §1

[2] = system: microbiota of the ruminal inoculum (ruminal fluid of goats); experiment: In vitro ruminal degradation of experimental diets (Example 3); conditions: for DDM (degradability of dry matter), mean / DOM (degradability of organic matter), mean: 48 hours
Method: The Effect of Different Doses of the Compounds Object of Study on the Ruminal Degradation of Two Different Diets the Composition of which is in Table 1 is Studied The diets consist of alfalfa hay (standard maintenance diet for ruminant animals) or of a mixture of 50% alfalfa hay and a commercial concentrate (standard lactation diet for ruminant animals). In vitro incubation is performed using ruminal fluid of goats as inoculum.

[3] = system: ruminal fermentation (methane-producing microorganisms); experiment: Production of gas by in vitro fermentation of the diets (Example 4); conditions: for inhibitory effect on production of fermentation gas, dependence on time: 24 and 48 hours; for doses at which the inhibitory effect on production of fermentation gas is observed: diet D2
Method: The effect of different doses of the compounds object of study on the production of gas promoted by in vitro fermentation for 24 and 48 hours of the diets the composition of which is included in Table 1 is studied.

[4] = Alfalfa hay + concentrate, 10 ppm
[5] = Alfalfa hay + concentrate, 25 ppm
[6] = Alfalfa hay + concentrate, 50 ppm
[7] = Alfalfa hay + concentrate, 300 ppm
[8] = Alfalfa hay + concentrate, 750 ppm
[9] = Alfalfa hay + concentrate, 1000 ppm
[10] = Alfalfa hay + concentrate, 2000 ppm
[11] = Table 4: diet D1, 48 hours, concentration 2000, replicates
[12] = diet D1, 48 hours, 10 ppm, replicates
[13] = diet D1, 48 hours, 25 ppm, replicates
[14] = diet D1, 48 hours, concentration 50, replicates
[15] = diet D1, 48 hours, concentration 300, replicates
[16] = diet D1, 48 hours, concentration 750, replicates
[17] = diet D1, 48 hours, concentration 1000, replicates
[18] = diet D1, 48 hours, concentration 2000, replicates
[19] = diet D2, 48 hours, 10 ppm, replicates
[20] = diet D2, 48 hours, 25 ppm, replicates
[21] = diet D2, 48 hours, concentration 50, replicates
[22] = diet D2, 48 hours, concentration 300, replicates
[23] = diet D2, 48 hours, concentration 750, replicates
[24] = diet D2, 48 hours, concentration 1000, replicates
[25] = diet D2, 48 hours, concentration 2000, replicates
[26] = diet D1, 50 to 750 ppm, 24 hours in vitro incubation
[27] = diet D1, 24 hours, 50 ppm, replicates
[28] = diet D1, 24 hours, 750 ppm, replicates

propyl propylthiosulfonate [PTSO]
growth of the bacterial groups studied [1]: inhibited the growth of all the bacterial groups studied | lactobacilli logarithmic reduction in the population (lactobacilli): approximately 50% | bifidobacteria logarithmic reduction in the population (bifidobacteria): approximately 50% | DDM (degradability of dry matter), mean [2, 4]: 63.4^a | DOM (degradability of organic matter), mean [2, 4]: 63.8^a | DDM (degradability of dry matter), mean [2, 5]: 62.5^a | DOM (degradability of organic matter), mean [2, 5]: 60.6^a | DDM (degradability of dry matter), mean [2, 6]: 61.1^a | DOM (degradability of organic matter), mean [2, 6]: 63.5^a | DDM (degradability of dry matter), mean [2, 7]: 45.2^b | DOM (degradability of organic matter), mean [2, 7]: 44.7^b | DDM (degradability of dry matter), mean [2, 8]: 38.1^c | DOM (degradability of organic matter), mean [2, 8]: 37.4^c | DDM (degradability of dry matter), mean [2, 9]: 37.2^c | DOM (degradability of organic matter), mean [2, 9]: 36.0^c | DDM (degradability of dry matter), mean [2, 10]: 36.7^c | DOM (degradability of organic matter), mean [2, 10]: 32.3^c | DDM (degradability of dry matter), mean ([2]; Alfalfa hay, 10 ppm): 55.5^a | DOM (degradability of organic matter), mean ([2]; Alfalfa hay, 10 ppm): 48.4^ab | DDM (degradability of dry matter), mean ([2]; Alfalfa hay, 25 ppm): 54.5^a | DOM (degradability of organic matter), mean ([2]; Alfalfa hay, 25 ppm): 53.2^ab | DDM (degradability of dry matter), mean ([2]; Alfalfa hay, 50 ppm): 45.6^b | DOM (degradability of organic matter), mean ([2]; Alfalfa hay, 50 ppm): 45.9^b | DDM (degradability of dry matter), mean ([2]; Alfalfa hay, 300 ppm): 36.2^c | DOM (degradability of organic matter), mean ([2]; Alfalfa hay, 300 ppm): 35.5^c | DDM (degradability of dry matter), mean ([2]; Alfalfa hay, 750 ppm): 30.4^d | DOM (degradability of organic matter), mean ([2]; Alfalfa hay, 750 ppm): 29.9^c | DDM (degradability of dry matter), mean ([2]; Alfalfa hay, 1000 ppm): 34.5^c | DOM (degradability of organic matter), mean ([2]; Alfalfa hay, 1000 ppm): 33.7^c | DDM (degradability of dry matter), mean ([2]; Alfalfa hay, 2000 ppm): 30.3^d | DOM (degradability of organic matter), mean ([2]; Alfalfa hay, 2000 ppm): 29.0^c | Mean DDM ([2]; Table 3: diet D1, 48 hours, 2000 ppm): 31.6% | DDM (degradation of dry matter) ([2]; Table 3: diet D1, 48 hours, 2000 ppm, replicates): 30.9% and 30.2% and 32.0% and 31.4% and 32.2% and 32.7% | DDM [2, 11]: 31.9% and 28.7% | effect on degradation of dry matter and organic matter ([2]; diet D1, 2000 ppm, 48 hours in vitro incubation): higher reduction | DDM [2, 12]: 54.9% and 56.1% | DOM [2, 12]: 45.0% and 51.8% | DDM [2, 13]: 54.1% and 55.0% | DOM [2, 13]: 52.9% and 53.6% | DDM [2, 14]: 45.5% and 45.7% | DOM [2, 14]: 46.0% and 45.7% | DDM [2, 15]: 36.6% and 35.8% | DOM [2, 15]: 36.2% and 34.9% | DDM [2, 16]: 31.0% and 29.9% | DOM [2, 16]: 30.2% and 29.6% | DDM [2, 17]: 33.4% and 35.6% | DOM [2, 17]: 32.6% and 34.7% | DOM [2, 18]: 30.6% and 27.5% | DDM [2, 19]: 63.1% and 63.7% | DOM [2, 19]: 63.2% and 64.3% | DDM [2, 20]: 62.4% and 62.7% | DOM [2, 20]: 58.4% and 62.8% | DDM [2, 21]: 61.1% and 63.9% | DOM [2, 21]: 62.2% and 64.8% | DDM [2, 22]: 44.4% and 46.0% | DOM [2, 22]: 43.7% and 45.6% | DDM [2, 23]: 39.9% and 36.3% | DOM [2, 23]: 39.0% and 35.8% | DDM [2, 24]: 35.9% and 38.4% | DOM [2, 24]: 34.8% and 37.3% | DDM [2, 25]: 37.1% and 36.3% | DOM [2, 25]: 32.7% and 32.0% | inhibitory effect on production of fermentation gas, dependence on dose [3]: dose-dependent | inhibitory effect on production of fermentation gas, dependence on time [3]: time-dependent | doses at which the inhibitory effect on production of fermentation gas is observed [3]: 10 ppm

propyl propylthiosulfinate [PTS]
lactobacilli logarithmic reduction in the population (lactobacilli): approximately 50% | bifidobacteria logarithmic reduction in the population (bifidobacteria): approximately 50% | DDM (degradability of dry matter), mean [2, 4]: 63.9^ab | DOM (degradability of organic matter), mean [2, 4]: 63.9^ab | DDM (degradability of dry matter), mean [2, 5]: 59.4^b | DOM (degradability of organic matter), mean [2, 5]: 59.7^b | DDM (degradability of dry matter), mean [2, 6]: 59.8^b | DOM (degradability of organic matter), mean [2, 6]: 59.8^b | DDM (degradability of dry matter), mean [2, 7]: 48.3^c | DOM (degradability of organic matter), mean [2, 7]: 47.8^c | DDM (degradability of dry matter), mean [2, 8]: 43.5^c | DOM (degradability of organic matter), mean [2, 8]: 45.5^c | DDM (degradability of dry matter), mean [2, 9]: 45.6^c | DOM (degradability of organic matter), mean [2, 9]: 45.1^c | DDM (degradability of dry matter), mean [2, 10]: 45.3^c | DOM (degradability of organic matter), mean [2, 10]: 38.7^d | DDM (degradability of dry matter), mean ([2]; Alfalfa hay, 10 ppm): 54.2^a | DOM (degradability of organic matter), mean ([2]; Alfalfa hay, 10 ppm): 54.5^a | DDM (degradability of dry matter), mean ([2]; Alfalfa hay, 25 ppm): 52.3^a | DOM (degradability of organic matter), mean ([2]; Alfalfa hay, 25 ppm): 42.9^bc | DDM (degradability of dry matter), mean ([2]; Alfalfa hay, 50 ppm): 46.6^b | DOM (degradability of organic matter), mean ([2]; Alfalfa hay, 50 ppm): 46.7^b | DDM (degradability of dry matter), mean ([2]; Alfalfa hay, 300 ppm): 40.6^c | DOM (degradability of organic matter), mean ([2]; Alfalfa hay, 300 ppm): 41.0^c | DDM (degradability of dry matter), mean ([2]; Alfalfa hay, 750 ppm): 39.6^c | DOM (degradability of organic matter), mean ([2]; Alfalfa hay, 750 ppm): 39.2^c | DDM (degradability of dry matter), mean ([2]; Alfalfa hay, 1000 ppm): 39.1^c | DOM (degradability of organic matter), mean ([2]; Alfalfa hay, 1000 ppm): 38.8^c | DDM (degradability of dry matter), mean ([2]; Alfalfa hay, 2000 ppm): 39.6^c | DOM (degradability of organic matter), mean ([2]; Alfalfa hay, 2000 ppm): 40.0^c | DDM [2, 11]: 40.2% and 38.9% | effect on degradation of dry matter [2, 26]: reduction of the degradation of dry matter | effect on degradation of organic matter [2, 26]: do not affect | Mean DDM ([2]; diet D1, 24 hours, 50 ppm): 37.1% | Mean DOM ([2]; diet D1, 24 hours, 50 ppm): 38.5% | DDM (degradation of dry matter) [2, 27]: 37.7% (2×) and 37.9% and 34.1% and 35.6% and 39.3% | DOM (degradation of organic matter) [2, 27]: 38.0% and 38.9% | Mean DDM ([2]; diet D1, 24 hours, 300 ppm): 37.4% | DDM (degradation of dry matter) ([2]; diet D1, 24 hours, 300 ppm, replicates): 38.5% and 40.4% and 37.6% and 36.0% and 35.7% and 36.2% | Mean DDM ([2]; diet D1, 24 hours, 750 ppm): 39.5% | Mean DOM ([2]; diet D1, 24 hours, 750 ppm): 38.1% | DDM (degradation of dry matter) [2, 28]: 40.8% and 37.7% and 43.2% and 39.5% and 37.9% and 38.0% | DOM (degradation of organic matter) [2, 28]: 39.4% and 36.8% | DDM [2, 12]: 54.5% and 53.9% | DOM [2, 12]: 54.8% and 54.2% | DDM [2, 13]: 52.0% and 52.5% | DOM [2, 13]: 43.0% and 42.9% | DDM [2, 14]: 46.2% and 46.9% | DOM [2, 14]: 47.5% and 45.9% | DDM [2, 15]: 41.8% and 39.4% | DOM [2, 15]: 42.5% and 39.5% | DDM [2, 16]: 39.6% and 39.7% | DOM [2, 16]: 38.6% and 39.7% | DDM [2, 17]: 39.1% | DOM [2, 17]: 38.6% and 38.9% | DOM [2, 18]: 40.3% and 39.7% | DDM [2, 19]: 64.0% and 63.9% | DOM [2, 19]: 63.8% and 64.0% | DDM [2, 20]: 57.4% and 61.4% | DOM [2, 20]: 57.6% and 61.8% | DDM [2, 21]: 60.9% and 58.7% | DOM [2, 21]: 60.9% and 58.8% | DDM [2, 22]: 49.3% and 47.2% | DOM [2, 22]: 48.6% and 47.1% | DDM [2, 23]: 44.8% and 42.2% | DOM [2, 23]: 46.5% and 44.6% | DDM [2, 24]: 46.1% and 45.1% | DOM [2, 24]: 45.6% and 44.7% | DDM [2, 25]: 45.7% and 44.9% | DOM [2, 25]: 38.9% and 38.5% | inhibitory effect on production of fermentation gas, dependence on dose [3]: dose-dependent | inhibitory effect on production of fermentation gas, dependence on time [3]: time-dependent | doses at which the inhibitory effect on production of fermentation gas is observed [3]: 10 ppm
